molecular target: T1, human cathepsin K (Homo sapiens, UniProt P43235); test: Cathepsin K inhibition assay, human recombinant enzyme, fluorogenic substrate Cbz-Phe-Arg-AMC; type: biochemical; settings: Table 1, human cathepsin K; read-out: h Cat K IC50
T1 construct: The proform of cathepsin K was converted to mature cathepsin K by brief exposure to pH 4; made in house; host or cells: baculovirus; Trichoplusia ni High Five cells (virus raised in Sf-9)
T1 sequence (P43235 115-329): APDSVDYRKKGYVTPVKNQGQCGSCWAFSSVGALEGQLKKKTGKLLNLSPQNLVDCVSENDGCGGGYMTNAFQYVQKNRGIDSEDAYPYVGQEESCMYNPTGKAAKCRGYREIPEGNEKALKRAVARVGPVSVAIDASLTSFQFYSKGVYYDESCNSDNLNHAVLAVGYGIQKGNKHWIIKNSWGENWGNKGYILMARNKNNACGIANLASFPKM
Description: All assays for cathepsin K were carried out with human and rat recombinant enzyme. Assays for cathepsins S ? V were also carried out with human recombinant enzyme. Assays for human cathepsins B, H, and L were carried out with enzyme, purchased from Athens Research and Technology, Inc., prepared from human liver tissue. […] A stock substrate solution of Cbz-Phe-Arg-AMC was prepared at a concentration of 50 mM in dimethyl sulfoxide. This substrate was diluted into the assay for a final substrate concentration of 10 μM in the rat cathepsin K, human cathepsin K, and human cathepsin B assays; a final substrate concentration of 5 μM in the human cathepsin L assay; and a final substrate concentration of 2 μM in the human cathepsin V assay.
All assays contained 10% dimethyl sulfoxide. […] All assays were conducted at 30° C. Product fluorescence (excitation at 360 nm; emission at 440 nm, (except cathepsin H which used excitation at 340 nm; emission at 420 nm)) was monitored with a PerSeptive Biosystems Cytofluor II fluorescence plate reader. Product progress curves were generated over 2.3 h monitoring the formation of 7-amino-4-methylcoumarin product (or β-naphthalamide for cathepsin H).
Human and rat Cathepsin K:
Two liters of Spodoptera frugiperda (Sf-9) cells (ATCC) were grown in Grace's Supplemented medium (Life Technologies) supplemented with 2 g/L glucose, 10% fetal bovine serum (HyClone) and 0.1% pluronic F-68 (Life Technologies). […] The cells continued to grow for 72 h post-infection, before the virus was harvested by centrifugation at 1400×g for 30 min.
One and one-half liters of Trichoplusia ni (T. ni) High Five (™) cells [JRH Biosciences, Woodland, Calif. […] The cells were grown for 24 h at 28° C., 50 RPM, and 50% dissolved oxygen. […] Media were separated from cells at a rate of 1 L/min using the Centritech 100 ™ continuous-flow centrifuge (DuPont) operating at 200×g.
Protein Purification: Media (human and rat) were filtered through a Whatman 3 filter, and then loaded onto a 25 mL. Poros HS II (26 mm×47 mm) cation exchange column equilibrated in 25 mM sodium acetate at pH 5.5 (equilibration buffer). The column was washed until the absorbance reached the baseline value, and then the protein was eluted with a linear gradient from 0-2 M sodium chloride in the equilibration buffer. Column fractions were analyzed by SDS-PAGE, N-terminal sequencing, and mass spectrometry. Fractions containing the proform of cathepsin K were pooled and frozen at −80° C. The proform was concentrated in an Amicon Centriprep 10 and fractionated with a Superdex 75 column (26 mm×600 mm, Pharmacia) equilibrated in 400 mM sodium chloride, 25 mM sodium acetate at pH 5.5.
Cathepsin K Activation: The proform of cathepsin K was converted to mature cathepsin K by brief exposure to pH 4 in the presence of 5 mM L-cysteine. Typically, 5 mM L-cysteine was added to 10 mL of approximately 1 mg/mL procathepsin K. One mL of this solution was diluted ten-fold into 450 mM sodium acetate at pH 4.0 containing 5 mM L-cysteine. This solution was reacted at 23° C. for 2 min before neutralization with 2 mL, 1.8 M sodium acetate at pH 6.0. The neutralized sample was added to the remaining 9 mL of procathepsin K. The mixture was incubated at 4° C. for 2-3 days. The activated cathepsin K was chromatographed on a Poros HS II column as described above.
Potential inhibitors were evaluated using the progress curve method. Assays were carried out in the presence of variable concentrations of test compound. Reactions were initiated by addition of buffered solutions of inhibitor and substrate to enzyme. Data analysis was conducted according to one of two procedures depending on the appearance of the progress curves in the presence of inhibitors. […] Ki values were calculated from IC50 values using equation 2 assuming a competitive model.

Row | Compound | IC50 [nM]
1 | CCCC[C@H](NC(=O)O[C@@H]1C(=O)OCC1(C)C)C(=O)C(=O)N[C@H](C)c1ccccc1 [Example 1, (3S)-4,4-dimethyl-2-oxotetrahydro-3-furanyl (1S)-1-(oxo([(1R)-1-phenylethyl]amino}acetyl)pentylcarbamate] | 1 to 10
2 | CNC(=O)NCCCC[C@H](NC(=O)O[C@@H]1C(=O)OCC1(C)C)C(=O)C(=O)N[C@H](C)c1ccccc1 [Example 2, (3S)-4,4-dimethyl-2-oxotetrahydro-3-furanyl (1S)-5-{[(methylamino)carbonyl]amino}-1-(oxo{[(1R)-1-phenylethyl]amino}acetyl)pentylcarbamate] | 1 to 10
3 | CCCC[C@H](NC(=O)OC1C(=O)OC[C@]1(C)CC)C(=O)C(=O)N[C@H](C)c1ccccc1 (stereo partly drawn) [Example 3, (4S)-4-ethyl-4-methyl-2-oxotetrahydro-3-furanyl (1S)-1-(oxo{[(1R)-1-phenylethyl]amino}acetyl)pentylcarbamate] | 1 to 10
4 | CCCC[C@H](NC(=O)OC1C(=O)N(Cc2ccccc2)CC1(C)C)C(=O)C(=O)N[C@H](C)c1ccccc1 (stereo partly drawn) [Example 4, 1-Benzyl-4,4-dimethyl-2-oxo-3-pyrrolidinyl (1S)-1-(oxo{[(1R)-1-phenylethyl]amino}acetyl)pentylcarbamate] | 10 to 100
5 | CCCC[C@H](NC(=O)OC1C(=O)N(C(=O)OCc2ccccc2)CC1(C)C)C(=O)C(=O)N[C@H](C)c1ccccc1 (stereo partly drawn) [Example 5, Benzyl 4,4-dimethyl-2-oxo-3-[({[(1S)-1-(oxo{[(1R)-1-phenylethyl]amino}acetyl)pentyl]amino}carbonyl)oxy]-1-pyrrolidinecarboxylate] | 10 to 100
6 | CCCC[C@H](NC(=O)OC1C(=O)N(C)CC1(C)C)C(=O)C(=O)N[C@H](C)c1ccccc1 (stereo partly drawn) [Example 7, 1,4,4-trimethyl-2-oxo-3-pyrrolidinyl (1S)-1-(oxo{[(1R)-1-phenylethyl]amino}acetyl)pentylcarbamate] | 10 to 100
7 | CCCCC(NC(=O)O[C@@H]1CN(Cc2ccccc2)CC1(C)C)C(=O)C(=O)N[C@H](C)c1ccccc1 (stereo partly drawn) [Example 8, (3S)-1-Benzyl-4,4-dimethylpyrrolidinyl 1-(oxo{[(1R)-1-phenylethyl]amino}acetyl)pentylcarbamate] | 10 to 100
8 | CCCC[C@H](NC(=O)O[C@@H]1CN(C(=O)c2ccccc2)CC1(C)C)C(=O)C(=O)N[C@H](C)c1ccccc1 [Example 9] | 10 to 100
9 | CCCC[C@H](NC(=O)O[C@@H]1CN(C(C)=O)CC1(C)C)C(=O)C(=O)N[C@H](C)c1ccccc1 [Example 10, (3S)-1-Acetyl-4,4-dimethylpyrrolidinyl (1S)-1-(oxo{[(1R)-1-phenylethyl]amino}acetyl)pentylcarbamate] | 10 to 100
10 | CCCC[C@H](NC(=O)O[C@@H]1CN(C(=O)Cc2ccccc2)CC1(C)C)C(=O)C(=O)N[C@H](C)c1ccccc1 [Example 11, (3S)-4,4-Dimethyl-1-(phenylacetyl)pyrrolidinyl (1S)-1-(oxo{[(1R)-1-phenylethyl]amino}acetyl)pentylcarbamate] | 1 to 10
11 | CCCC[C@H](NC(=O)O[C@@H]1CN(C(=O)c2ccno2)CC1(C)C)C(=O)C(=O)N[C@H](C)c1ccccc1 [Example 12] | 1 to 10
12 | CCCC[C@H](NC(=O)O[C@@H]1CN(C(=O)c2snnc2C)CC1(C)C)C(=O)C(=O)N[C@H](C)c1ccccc1 [Example 13, (3S)-4,4-Dimethyl-1-[(4-methyl-1,2,3-thiadiazol-5-yl)carbonyl]pyrrolidinyl (1S)-1-(oxo {[(1R)-1-phenylethyl]amino}acetyl)pentylcarbamate] | 10 to 100
13 | CCCC[C@H](NC(=O)O[C@@H]1CN(C(=O)c2cc(C(C)(C)C)nn2C)CC1(C)C)C(=O)C(=O)N[C@H](C)c1ccccc1 [Example 14, (3S)-1-[(3-tert-Butyl-1-methyl-1H-pyrazol-5-yl)carbonyl]-4,4-dimethylpyrrolidinyl (1S)-1-(oxo{[(1R)-1-phenylethyl]amino}acetyl)pentylcarbamate] | 1 to 10
14 | CCCC[C@H](NC(=O)O[C@@H]1CN(C(=O)c2nn(-c3ccccc3)nc2C)CC1(C)C)C(=O)C(=O)N[C@H](C)c1ccccc1 [Example 15, (3S)-4,4-Dimethyl-1-[(5-methyl-2-phenyl-2H-1,2,3-triazol-4-yl)carbonyl]pyrrolidinyl (1S)-1-(oxo{[(1R)-1-phenylethyl]amino}acetyl)pentylcarbamate] | 1 to 10
15 | CCCC[C@H](NC(=O)O[C@@H]1CN(C(=O)c2ccc3c(c2)OCO3)CC1(C)C)C(=O)C(=O)N[C@H](C)c1ccccc1 [Example 16, (3S)-1-(1,3-Benzodioxol-5-ylcarbonyl)-4,4-dimethylpyrrolidinyl (1S)-1-(oxo{[(1R)-1-phenylethyl]amino}acetyl)pentylcarbamate] | 1 to 10
16 | CCCC[C@H](NC(=O)O[C@@H]1CN(C(=O)c2cc3ccccc3s2)CC1(C)C)C(=O)C(=O)N[C@H](C)c1ccccc1 [Example 17, (3S)-1-(1-Benzothien-2-ylcarbonyl)-4,4-dimethylpyrrolidinyl (1S)-1-(oxo{[(1R)-1-phenylethyl]amino}acetyl)pentylcarbamate] | 1 to 10
17 | CCCC[C@H](NC(=O)O[C@@H]1CN(C(=O)c2ccc3ccccc3c2)CC1(C)C)C(=O)C(=O)N[C@H](C)c1ccccc1 [Example 18, (3S)-4,4-Dimethyl-1-(2-naphthoyl)pyrrolidinyl (1S)-1-(oxo {[(1R)-1-phenylethyl]amino}acetyl)pentylcarbamate] | 1 to 10
18 | CCCC[C@H](NC(=O)O[C@@H]1CN(C(=O)c2cc(C)on2)CC1(C)C)C(=O)C(=O)N[C@H](C)c1ccccc1 [Example 19, (3S)-4,4-Dimethyl-1-[(5-methyl-3-isoxazolyl)carbonyl]pyrrolidinyl (1S)-1-(oxo {[(1R)-1-phenylethyl]amino}acetyl)pentylcarbamate] | 10 to 100
19 | CCCC[C@H](NC(=O)O[C@@H]1CN(C(=O)c2ccc(-c3ccccc3)cc2)CC1(C)C)C(=O)C(=O)N[C@H](C)c1ccccc1 [Example 20] | 1 to 10
20 | CCCC[C@H](NC(=O)O[C@@H]1CN(C(=O)c2ccc3[nH]ccc3c2)CC1(C)C)C(=O)C(=O)N[C@H](C)c1ccccc1 [Example 21, (3S)-1-(1H-Indol-5-ylcarbonyl)-4,4-dimethylpyrrolidinyl (1S)-1-(oxo{[(1R)-1-phenylethyl]amino}acetyl)pentylcarbamate] | 1 to 10
21 | CCCC[C@H](NC(=O)O[C@@H]1CN(C(=O)c2ccc3[nH]nnc3c2)CC1(C)C)C(=O)C(=O)N[C@H](C)c1ccccc1 [Example 22, (3S)-1-(1H-1,2,3-Benzotriazol-5-ylcarbonyl)-4,4-dimethylpyrrolidinyl (1S)-1-(oxo{[(1R)-1-phenylethyl]amino}acetyl)pentylcarbamate] | 1 to 10
22 | CCCC[C@H](NC(=O)O[C@@H]1CN(C(=O)Cc2cccc(Oc3ccccc3)c2)CC1(C)C)C(=O)C(=O)N[C@H](C)c1ccccc1 [Example 23, (3S)-4,4-Dimethyl-1-[(3-phenoxyphenyl)acetyl]pyrrolidinyl (1S)-1-(oxo{[(1R)-1-phenylethyl]amino}acetyl)pentylcarbamate] | 10 to 100
23 | CCCC[C@H](NC(=O)O[C@@H]1CN(C(=O)CCCc2ccccc2)CC1(C)C)C(=O)C(=O)N[C@H](C)c1ccccc1 [Example 24, (3S)-4,4-Dimethyl-1-(4-phenylbutanoyl)pyrrolidinyl (1S)-1-(oxo {[(1R)-1-phenylethyl]amino}acetyl)pentylcarbamate] | 10 to 100
